{
  "source": "paper PMC11743598",
  "about": "“Identification of a binding site for small molecule inhibitors targeting human TRPM4” (Nature Communications, 2025)",
  "biological_target": "T1, HsTRPM4 (Homo sapiens, UniProt Q8TD43)",
  "T1 construct": "gene TRPM4; full-length, wild-type codon-optimized gene, C-terminal HA and FLAG tags, pcDNA3.1; patch clamp in transiently transfected cells (TsA-201); cryo-EM from HEK293F, SMA native nanodiscs, C4 symmetry (homotetramer)",
  "T1 sequence (Q8TD43 whole entry)": "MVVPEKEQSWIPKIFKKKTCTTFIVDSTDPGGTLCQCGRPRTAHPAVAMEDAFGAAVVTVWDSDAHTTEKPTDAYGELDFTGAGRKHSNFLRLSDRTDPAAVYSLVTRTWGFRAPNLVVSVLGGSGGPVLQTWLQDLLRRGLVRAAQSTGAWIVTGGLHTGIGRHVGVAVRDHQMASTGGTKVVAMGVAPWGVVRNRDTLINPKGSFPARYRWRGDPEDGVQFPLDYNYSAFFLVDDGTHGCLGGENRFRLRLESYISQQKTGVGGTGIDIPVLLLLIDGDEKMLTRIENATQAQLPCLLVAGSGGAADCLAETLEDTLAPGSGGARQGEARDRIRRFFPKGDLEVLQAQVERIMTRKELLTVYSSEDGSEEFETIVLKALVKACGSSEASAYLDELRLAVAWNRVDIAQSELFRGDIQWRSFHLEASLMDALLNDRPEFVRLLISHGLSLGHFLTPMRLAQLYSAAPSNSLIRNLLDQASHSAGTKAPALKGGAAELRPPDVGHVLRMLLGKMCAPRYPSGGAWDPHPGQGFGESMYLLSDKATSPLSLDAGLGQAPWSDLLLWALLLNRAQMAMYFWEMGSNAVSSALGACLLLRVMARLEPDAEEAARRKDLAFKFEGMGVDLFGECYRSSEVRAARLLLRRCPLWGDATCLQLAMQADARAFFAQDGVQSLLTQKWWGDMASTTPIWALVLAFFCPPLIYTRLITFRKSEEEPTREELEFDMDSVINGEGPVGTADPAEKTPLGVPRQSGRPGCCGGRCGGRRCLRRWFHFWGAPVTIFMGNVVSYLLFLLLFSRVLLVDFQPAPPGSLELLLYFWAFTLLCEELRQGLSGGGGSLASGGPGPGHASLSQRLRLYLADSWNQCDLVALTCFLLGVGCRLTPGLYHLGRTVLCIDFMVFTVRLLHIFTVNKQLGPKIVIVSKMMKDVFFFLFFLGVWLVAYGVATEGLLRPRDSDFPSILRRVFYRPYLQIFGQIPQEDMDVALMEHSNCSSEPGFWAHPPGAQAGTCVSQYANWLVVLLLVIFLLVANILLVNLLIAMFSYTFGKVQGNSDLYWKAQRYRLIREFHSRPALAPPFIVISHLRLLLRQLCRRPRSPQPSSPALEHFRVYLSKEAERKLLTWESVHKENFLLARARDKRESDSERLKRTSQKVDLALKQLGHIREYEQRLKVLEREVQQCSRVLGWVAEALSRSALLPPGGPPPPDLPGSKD",
  "test": "cryo-EM structure, […] A",
  "type": "binding",
  "details": "endogenous lipid assigned from density, three sites per protomer, SMA native nanodiscs",
  "data": [
    {"compound": "CC(C)CCC[C@@H](C)[C@H]1CC[C@H]2[C@@H]3CC=C4C[C@@H](O)CC[C@]4(C)[C@H]3CC[C@]12C", "note": "[cholesterol]", "values": [
      {"measurement": "cryo-EM structure, 3.67 A", "value": "primarily three densities for cholesterol molecules bound to TRPM4 observed"}
    ]}
  ]
}
